Results as given in the NIST ThermoML archive (doi:10.1016/j.jct.2015.12.017).

Conditions: for molar entropy: 101.33 kPa

O=P([O-])([O-])[O-].[Co+2].[Cs+] [cesium cobalt(II) phosphate]
Conditions	molar entropy [J/K/mol]
5 K, Crystal 4, Vacuum adiabatic calorimetry	0.4864
6 K, Crystal 4, Vacuum adiabatic calorimetry	0.7965
7 K, Crystal 4, Vacuum adiabatic calorimetry	1.172
8 K, Crystal 4, Vacuum adiabatic calorimetry	1.621
9 K, Crystal 4, Vacuum adiabatic calorimetry	2.062
10 K, Crystal 4, Vacuum adiabatic calorimetry	2.528
15 K, Crystal 4, Vacuum adiabatic calorimetry	5.047
20 K, Crystal 4, Vacuum adiabatic calorimetry	8.117
25 K, Crystal 4, Vacuum adiabatic calorimetry	11.62
30 K, Crystal 4, Vacuum adiabatic calorimetry	15.46
35 K, Crystal 4, Vacuum adiabatic calorimetry	19.44
40 K, Crystal 4, Vacuum adiabatic calorimetry	23.53
45 K, Crystal 4, Vacuum adiabatic calorimetry	27.67
50 K, Crystal 4, Vacuum adiabatic calorimetry	31.83
60 K, Crystal 4, Vacuum adiabatic calorimetry	40.01
70 K, Crystal 4, Vacuum adiabatic calorimetry	47.95
80 K, Crystal 4, Vacuum adiabatic calorimetry	55.65
90 K, Crystal 4, Vacuum adiabatic calorimetry	63.08
100 K, Crystal 4, Vacuum adiabatic calorimetry	70.28
110 K, Crystal 4, Vacuum adiabatic calorimetry	77.27
120 K, Crystal 4, Vacuum adiabatic calorimetry	84.06
130 K, Crystal 4, Vacuum adiabatic calorimetry	90.54
140 K, Crystal 4, Vacuum adiabatic calorimetry	96.95
150 K, Crystal 4, Vacuum adiabatic calorimetry	103.18
160 K, Crystal 4, Vacuum adiabatic calorimetry	109.17
170 K, Crystal 4, Vacuum adiabatic calorimetry	115.16
180 K, Crystal 4, Vacuum adiabatic calorimetry	120.89
190 K, Crystal 4, Vacuum adiabatic calorimetry	126.55
200 K, Crystal 4, Vacuum adiabatic calorimetry	132.03
210 K, Crystal 4, Vacuum adiabatic calorimetry	137.36
220 K, Crystal 4, Vacuum adiabatic calorimetry	142.59
230 K, Crystal 4, Vacuum adiabatic calorimetry	147.75
240 K, Crystal 4, Vacuum adiabatic calorimetry	152.74
250 K, Crystal 4, Vacuum adiabatic calorimetry	157.64
260 K, Crystal 4, Vacuum adiabatic calorimetry	162.55
270 K, Crystal 4, Vacuum adiabatic calorimetry	167.29
273.15 K, Crystal 4, Vacuum adiabatic calorimetry	168.78
280 K, Crystal 4, Vacuum adiabatic calorimetry	171.94
290 K, Crystal 4, Vacuum adiabatic calorimetry	176.52
298.15 K, Crystal 4, Vacuum adiabatic calorimetry	180.17
300 K, Crystal 4, Vacuum adiabatic calorimetry	181.01
310 K, Crystal 4, Vacuum adiabatic calorimetry	185.5
313.4 K, Crystal 3, Vacuum adiabatic calorimetry	186.91
313.4 K, Crystal 4, Vacuum adiabatic calorimetry	186.83
320 K, Crystal 3, Vacuum adiabatic calorimetry	190.07
330 K, Crystal 3, Vacuum adiabatic calorimetry	194.48
340 K, Crystal 3, Vacuum adiabatic calorimetry	198.8
350 K, Crystal 3, Small sample (50 mg) DSC	203.12
360 K, Crystal 3, Small sample (50 mg) DSC	207.45
370 K, Crystal 3, Small sample (50 mg) DSC	211.69
380 K, Crystal 3, Small sample (50 mg) DSC	215.76
390 K, Crystal 3, Small sample (50 mg) DSC	219.92
400 K, Crystal 3, Small sample (50 mg) DSC	223.91
410 K, Crystal 3, Small sample (50 mg) DSC	227.9
420 K, Crystal 3, Small sample (50 mg) DSC	231.81
430 K, Crystal 3, Small sample (50 mg) DSC	235.63
440 K, Crystal 3, Small sample (50 mg) DSC	239.46
450 K, Crystal 3, Small sample (50 mg) DSC	243.2
460 K, Crystal 3, Small sample (50 mg) DSC	246.94
470 K, Crystal 3, Small sample (50 mg) DSC	250.6
480 K, Crystal 3, Small sample (50 mg) DSC	254.26
486.9 K, Crystal 2, Small sample (50 mg) DSC	257.5
486.9 K, Crystal 3, Small sample (50 mg) DSC	256.83
490 K, Crystal 2, Small sample (50 mg) DSC	258.58
500 K, Crystal 2, Small sample (50 mg) DSC	262.16
510 K, Crystal 2, Small sample (50 mg) DSC	265.65
514.4 K, Crystal 1, Small sample (50 mg) DSC	267.98
514.4 K, Crystal 2, Small sample (50 mg) DSC	267.06
520 K, Crystal 1, Small sample (50 mg) DSC	270.05
530 K, Crystal 1, Small sample (50 mg) DSC	273.38
540 K, Crystal 1, Small sample (50 mg) DSC	276.71
550 K, Crystal 1, Small sample (50 mg) DSC	279.95
560 K, Crystal 1, Small sample (50 mg) DSC	283.19
570 K, Crystal 1, Small sample (50 mg) DSC	286.27
580 K, Crystal 1, Small sample (50 mg) DSC	289.34
590 K, Crystal 1, Small sample (50 mg) DSC	292.42
600 K, Crystal 1, Small sample (50 mg) DSC	295.41
610 K, Crystal 1, Small sample (50 mg) DSC	298.32
620 K, Crystal 1, Small sample (50 mg) DSC	301.15
630 K, Crystal 1, Small sample (50 mg) DSC	303.98
640 K, Crystal 1, Small sample (50 mg) DSC	306.8
650 K, Crystal 1, Small sample (50 mg) DSC	309.55

Conditions	Triple point temperature [K]
Crystal 2, DSC	514.4
Crystal 3, DSC	486.9
Crystal 4, Adiabatic calorimetry	313.4
